From PubChem BioAssay (NCI) come the findings set out here.

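Step 1: Grow cells in 96-well plates. Step 2: Expose to compound for 48 hours at 5 concentrations. Step 3: Interpolate endpoints linearly; if unreached, use highest concentration. TGI is the concentration that stops growth completely.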

Test systems include DLD-1 colon; DMS 114 small cell lung; DMS 273 small cell lung; HOP-18 NSCLC; M19-MEL melanoma; OVCAR-4 ovarian; SNB-78 CNS; XF 498 CNS; HS 578T breast; MDA-MB-435.
Experiment in all cases: inhibition of tumour cell growth, NCI panel, 48 h

Regarding `CCCCC(C(=O)C(=O)Nc1ccc(C)cc1C)C(=O)C(C)C` (configuration not stated), the TGI with DLD-1 colon, in the assay with DMS 114 small cell lung, in the assay on DMS 273 small cell lung, with HOP-18 NSCLC, in the assay on M19-MEL melanoma and in the assay on OVCAR-4 ovarian was over 100 µM throughout. The TGI in the assay on SNB-78 CNS and in the assay on XF 498 CNS was over 100 µM each time.
As to `CCc1cccc(C(C)C)c1NC(=O)CC1Sc2ccccc2NC1=O` (configuration not stated), the TGI with DLD-1 colon, in the assay with DMS 114 small cell lung, in the assay with DMS 273 small cell lung, in the assay on HOP-18 NSCLC, with M19-MEL melanoma and with OVCAR-4 ovarian was over 100 µM throughout. Besides, the TGI with SNB-78 CNS and with XF 498 CNS was over 100 µM in each case.
For `C/C(=N\Nc1ccccc1)c1sc(-c2nc(C)c(/C(C)=N/Nc3ccccc3)s2)nc1C`, the TGI with DLD-1 colon was over 100 µM; in the assay with DMS 114 small cell lung it was over 30.8 µM; in the assay with DMS 273 small cell lung it was over 21.1 µM; with HOP-18 NSCLC, over 96.6 µM; with M19-MEL melanoma it was over 85.2 µM; in the assay on OVCAR-4 ovarian, over 100 µM. Also, the TGI with SNB-78 CNS and in the assay with XF 498 CNS was over 100 µM each time.
`Cc1cc(=O)oc2c(C3=NN(C=O)C(c4ccccc4)C3)c(O)ccc12` (configuration not stated): the TGI in the assay with DLD-1 colon is over 100 µM; in the assay on DMS 114 small cell lung, over 100 µM; in the assay on DMS 273 small cell lung it was over 100 µM; in the assay with HOP-18 NSCLC, over 100 µM; with HS 578T breast, over 93.2 µM; in the assay with M19-MEL melanoma, over 100 µM. Further, the TGI with MDA-MB-435 was over 100 µM; in the assay with OVCAR-4 ovarian it was over 100 µM; in the assay on SNB-78 CNS, over 96 µM; in the assay on XF 498 CNS, 42.1 µM.
As to `CCCCCCCCCCC(=O)CCCCCCC(=O)O`, the TGI is 47.2 µM with DLD-1 colon; 50.3 µM in the assay with DMS 114 small cell lung; 47.1 µM in the assay with DMS 273 small cell lung; 39 µM in the assay on HOP-18 NSCLC; 74.7 µM with M19-MEL melanoma; over 100 µM in the assay on OVCAR-4 ovarian. For the same compound, the TGI with SNB-78 CNS was over 100 µM; in the assay on XF 498 CNS, 97.8 µM.
